Data set [1] can be described thus: Tissue distribution studies (tissue concentrations by LC-MS/MS). In kind it is in vivo, male C57Bl/6 mice. The settings on record: for AUC(4-hr) Heart / AUC(4-hr) Liver: mice, targeted dose 0.100 mg/kg; for brain levels of parent acid Compound 15: PO dosing (0.1 mg/kg) of the amide prodrug, compared to dosing Compound 15 itself, FIG. 1. As to the method: For tissue concentration studies in male C57Bl/6 mice, test compounds are formulated as NMP/solutol/PBS solution, at a concentration of 0.05 mg/mL and dosed at 2 mL/kg with the targeted dose of 0.100 mg/kg via SC injection or oral dosing. […] The pharmacokinetic parameters are determined by non-compartmental methods using WinNonlin. Area under the drug curves (AUC) values are determined by trapezoidal approximation; tissue-to-tissue ratios are determined by comparing AUC values.

For data set [2], the target named is T1, TRα (Homo sapiens, UniProt P10827).
T1 construct: expressed in transfected cells; host or cells: HEK293
T1 sequence (P10827 163-410 isoform P10827-2 limits assumed): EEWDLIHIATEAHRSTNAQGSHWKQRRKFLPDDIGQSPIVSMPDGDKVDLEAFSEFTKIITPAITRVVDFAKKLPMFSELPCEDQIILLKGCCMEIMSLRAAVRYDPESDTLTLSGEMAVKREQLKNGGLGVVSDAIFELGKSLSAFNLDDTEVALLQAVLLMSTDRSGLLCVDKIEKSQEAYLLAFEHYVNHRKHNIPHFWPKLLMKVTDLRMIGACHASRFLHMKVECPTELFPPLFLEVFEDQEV
Kind of data set: Thyroid-hormone reporter-gene assay (TRα-Gal4 hybrid, luciferase, HEK293). Format: cell-based. The protocol: (§1) Compounds were tested for thyroid-hormone receptor activity using TR reporter-gene assays. Reporter cells used in the assays express a TR-receptor hybrid (either TRα or TRβ) in which the native N-terminal DNA binding domain (DBD) has been replaced with that of the yeast Gal4 DBD. The reporter gene, firefly luciferase, is functionally linked to the Gal4 upstream activation sequence (UAS). Both cell lines were derived from human embryonic kidney (HEK293).
(§2) Step 1: A suspension of reporter cells was prepared in cell recovery medium containing 10% charcoal-stripped FBS, and dispensed into assay plates. The plates were pre-incubated for 6 hours in a cell culture incubator (37° C./5% CO2/85% humidity).
(§3) These intermediate stocks were subsequently diluted directly into compound screening medium containing 10% charcoal-stripped FBS to generate “2×-concentration” treatment media (containing 0.2, 0.4 or 0.8% DMSO).
(§4) Step 3: At the end of the pre-incubation period, culture media were discarded from the assay plates, and all wells received 100 μl of compound screening medium. 100 μl of each of the previously prepared “2×-concentration” treatment media were dispensed into duplicate assay wells, thereby achieving the desired final treatment concentrations. The final concentration of DMSO in all assay wells was 0.1, 0.2 or 0.4%. Assay plates were incubated for 24 hr in a cell culture incubator (37° C./5% CO2/85% humidity).
(§5) Step 4: At the 24 h assay endpoint, treatment media were discarded and 100 μl/well of luciferase detection reagent was added. Relative luminometer units (RLUs) were quantified from each assay well.

Data set [3] addresses T2, TRβ (Homo sapiens, UniProt P10828).
T2 construct: expressed in transfected cells; host or cells: HEK293
T2 sequence (P10828 217-461 limits assumed): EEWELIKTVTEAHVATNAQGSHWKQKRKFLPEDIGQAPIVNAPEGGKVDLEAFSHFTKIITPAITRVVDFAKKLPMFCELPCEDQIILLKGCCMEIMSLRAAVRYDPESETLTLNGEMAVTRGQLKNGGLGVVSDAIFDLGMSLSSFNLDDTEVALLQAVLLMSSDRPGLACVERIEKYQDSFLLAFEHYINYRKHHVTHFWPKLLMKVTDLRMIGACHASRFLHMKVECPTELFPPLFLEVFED
The data set is described as follows: Thyroid-hormone reporter-gene assay (TRβ-Gal4 hybrid, luciferase, HEK293). In kind it is cell-based. Particulars: for T3-SI (selectivity index): calculated as EC50 (TRα)/EC50 (TRβ). As to the method: as §1, §2, §3, §4, §5

Where [4] appears, read: reporter cells, 24 hr incubation, Table 2, read-out: TRα (EC50).
The mark [5] stands for this setting: reporter cells, 24 hr incubation, Table 2, read-out: TRβ (EC50).

The structures appear in SMILES notation. Where two headings read alike, the source gives them in different places.

For the molecule `CC(C)c1c(O)ccc(Cc2c(Cl)cc(OCC(=O)O)cc2Cl)c1F` [Compound 15, 2-(3,5-dichloro-4-(2-fluoro-4-hydroxy-3-isopropylbenzyl)phenoxy)acetic acid], in data set [1], the “AUC(4-hr) Heart” value is on record as 25.8 ng-hr/g of tissue and the “AUC(4-hr) Liver” value is recorded as 580 ng-hr/g of tissue.

For the molecule `CNC(=O)COc1cc(Cl)c(Cc2ccc(O)c(C(C)C)c2F)c(Cl)c1` [Compound 16, 2-(3,5-dichloro-4-(2-fluoro-4-hydroxy-3-isopropylbenzyl)phenoxy)-N-methylacetamide], in data set [1], the “brain levels of parent acid Compound 15” value is “dramatic increase in brain concentration of the parent acid”.

On to `CC(C)c1c(O)ccc(Cc2c(Cl)cc(OCC(=O)N(C)C)cc2Cl)c1F` [Compound 17, 2-(3,5-dichloro-4-(2-fluoro-4-hydroxy-3-isopropylbenzyl)phenoxy)-N,N-dimethylacetamide], for which the “brain levels of parent acid Compound 15” value in data set [1] was “increase in the brain concentration of the parent acid”.

Turning to `CC(C)c1cc(Cc2c(Cl)cc(OCC(=O)O)c(F)c2Cl)ccc1O` [Compound 62, 2-(3,5-dichloro-2-fluoro-4-(4-hydroxy-3-isopropylbenzyl)phenoxy)acetic acid], in data set [1], the “AUC(4-hr) Heart” value was 24.4 ng-hr/g of tissue and the “AUC(4-hr) Liver” value is listed as 550 ng-hr/g of tissue.

Usually EC50 stands for the concentration giving half of the maximal effect. As to `CNC(=O)COc1cc(C)c(Cc2ccc(O)c(C(C)C)c2)c(F)c1F` [Compound 133, 2-(2,3-difluoro-4-(4-hydroxy-3-isopropylbenzyl)-5-methylphenoxy)-N-methylacetamide], the EC50 in data set [2] (setting [4]) and in data set [3] (setting [5]) was 10 to 100 nM each time. In addition, the “T3-SI (selectivity index)” value in data set [3] (Table 2) was “++ (3×<T3-SI≤30×)”.

Take `CCc1cc(OCC(=O)Nc2onc(C)c2C)cc(Cl)c1Cc1ccc(O)c(C(C)C)c1F` [Compound 142, 2-(3-chloro-5-ethyl-4-(2-fluoro-4-hydroxy-3-isopropylbenzyl)phenoxy)-N-(3,4-dimethylisoxazol-5-yl)acetamide]: the EC50 in data set [2] (setting [4]) is 100 to 1000 nM; in data set [3] (setting [5]), 10 to 100 nM. Besides, the “T3-SI (selectivity index)” value in data set [3] (Table 2) was “++ (3×<T3-SI≤30×)”.

On to `CNC(=O)COc1cc(C)c(Cc2ccc(O)c(C(C)C)c2)c(Cl)c1F` [Compound 143, 2-(3-chloro-2-fluoro-4-(4-hydroxy-3-isopropylbenzyl)-5-methylphenoxy)-N-methylacetamide], for which the EC50 in data set [2] (setting [4]) lay within 100 to 1000 nM; in data set [3] (setting [5]), 10 to 100 nM. Moreover, the “T3-SI (selectivity index)” value in data set [3] (Table 2) was “+++ (T3-SI>30×)”.

On to `CCOC(=O)COc1cc(F)c(Cc2ccc(O)c(C(C)C)c2)c(Cl)c1F` [Compound 147, ethyl 2-(3-chloro-2,5-difluoro-4-(4-hydroxy-3-isopropylbenzyl)phenoxy)acetate], for which the EC50 in data set [2] (setting [4]) is over 1000 nM; in data set [3] (setting [5]) it was 100 to 1000 nM. Further, in data set [3] (Table 2), the “T3-SI (selectivity index)” value was “+++ (T3-SI>30×)”.

Regarding `CCOC(=O)COc1cc(Cl)c(Cc2ccc(O)c(C(C)C)c2)c(Cl)c1OC` [Compound 165, ethyl 2-(3,5-dichloro-4-(4-hydroxy-3-isopropylbenzyl)-2-methoxyphenoxy)acetate], the EC50 in data set [2] (setting [4]) and in data set [3] (setting [5]) was 100 to 1000 nM in each case. In addition, the “T3-SI (selectivity index)” value in data set [3] (Table 2) is “++ (3×<T3-SI≤30×)”.

Turning to `CNC(=O)COc1cc(Cl)c(Cc2ccc(O)c(C(C)C)c2)c(Cl)c1OC` [Compound 167, 2-(3,5-dichloro-4-(4-hydroxy-3-isopropylbenzyl)-2-methoxyphenoxy)-N-methylacetamide], the EC50 in data set [2] (setting [4]) and in data set [3] (setting [5]) was 10 to 100 nM in each case. For the same molecule, in data set [3] (Table 2), the “T3-SI (selectivity index)” value is “++ (3×<T3-SI≤30×)”.

In the case of `CC(C)c1cc(Cc2c(Cl)cc(OCC(=O)O)cc2Cl)ccc1O` [JD-21, reference compound], the EC50 in data set [2] (Table 3, read-out: EC50-TRα) was determined as 190 nM; in data set [3] (Table 3, read-out: EC50-TRβ) it was 79 nM. This molecule returned a T3-SI in data set [3] (selectivity index, Table 3) of 14.
